Results on three compounds are retold here after publication PMC6033896, “Discovery of Mcl-1 inhibitors from integrated high throughput and virtual screening” (Scientific Reports, 2018).

In general, Ki refers to a measure of affinity in units of concentration, obtained from inhibition or displacement. For orientation: IC50 means the concentration that inhibits the measured activity by half.

In experiment [1] the target is T1, Mcl-1 protein (Homo sapiens, UniProt Q07820).
T1 construct: human Mcl-1 (residues 171–323); His tag (pHis-TEV vector) (N, cleaved yes); made in house; host or cells: E. coli BL21 (DE3)
Nature of the experiment: FP-based competitive binding assay with fluorescent labelled Bid BH3 peptide. Particulars: for Ki: calculated from FP IC50; for IC50: competition with fluorescent Bid probe 2 nM, 20 nM Mcl-1 for purchased compounds, 10 nM for synthesized library. The protocol:
(§1) FP-based binding assays were developed and optimized to determine the binding affinities of inhibitors to the recombinant Mcl-1, Bcl-2, Bcl-xL, and Bfl-1, proteins. […] The fluorescent Bid probe was fixed at 2 nM for all assays, except for Bfl-1, where 1 nM was used. 5 μL of the tested compound in DMSO and 120 μL of protein/probe complex in the assay buffer were added to assay plates (Corning #3792), incubated at room temperature for 3 h, and the polarization values (mP) were measured at an excitation wavelength of 485 nm and an emission wavelength of 530 nm using the plate reader Synergy H1 Hybrid, BioTek. IC50 values were determined by nonlinear regression fitting of the competition curves (GraphPad Prism 6.0 Software). The Ki values were calculated as described previously.
(§2) 1. List of compounds purchased from vendors
(§3) Compound s 5, 6, 7, 8 and S3, S4, S5, S6 S7, S8, S9, S10, S17 were purchased from […]
(§4) Compound s 9, 10, 11 and S11, S12, S13 were purchased from I nterbioscreen […]
His-tagged proteins containing human Mcl-1 (residues 171–323), the isoform 2 construct of the human Bcl-2 [Bcl2-2 construct for protein production starts with the Bcl2 sequence of 1-34 a a, followed by the Bcl-xL seq uence of 35-50 aa, and ends with the Bcl-2 sequenc e of 92-202aa.], Bcl-xL (Human Bcl-xL protein, which has an internal deletion for the 45 -85 amino acid residues and a C -terminal truncation for the amino acid residues 212-233), and Bf l-1 (residues 1-151), were expres sed from the pHis -TEV vector (a modified pET vector) in E. coli BL21 (DE3) cells. Cells were grown at 37 °C in 2×YT containing antibiotics to an OD600 density of 1.5, 1 and 0.8 for Mcl-1, Bcl-xL and Bcl-2 respectively. Protein expression wa s induced by 0 .4 mM IPTG at 20 °C overnight for all proteins except for Bf l-1 which was e xpressed at 3 7 °C for four hours . Cells were lysed in 20 mM HEPES pH 7.5, 200 mM NaCl, 0.1% βME with Leupeptin/Aprotinin (Mcl-1), 25mM Tris pH 8.5, 200mM NaCl (Bcl-2), 50mM Tris pH 7.5, 200 mM NaCl (Bcl-xL) and 50 mM Tris pH 8, 500 mM NaCl, 0. 1% βME with Leupeptin/Aprotinin (Bf l-1). All […]
proteins were purified from the soluble fraction using Ni-NTA resin (QIAGEN), following the manufacturer’s instructions. For purification of TEV-cleaved protein, the amino-terminal His tag was cleaved by incubation with TEV protease and the protein was further purified by anion exchange (Source Q) and gel filtration chromatography (Superdex 75, Amersham Biosciences) in 20mM HEPES pH 7.0, 50 mM NaCl (Mcl-1), […]
NaCl, 0.1% βME (Bcl-xL) and 25 mM Tris pH 7.5, 150 mM NaCl, 25% Glycerol, 0.1% βME ( Bf l-1). His-tagged Mcl-1 protein was used for TR-FRET assay and HSQC-NMR.
His-TEV cleaved Mcl-1, Bcl-2, Bcl-xL, and Bf l-1 were used in fluorescent polarization and surface plasmon resonance binding assays.
Mutant Mcl-1 protein wa s prepared by the QuikChange site -directed mutagenesi s method (Stratagene) , where Arg263 was mutated to Ala. The R263A expression pla smid was transformed into Rosetta2 DE3 cells and purified by the same method as the wildtype protein. Cultures were grown to an OD 600 of 1. 5 at 37 °C in Terrific Broth, induced with 0. 4 mM IPTG, and express ed overnight at 20 °C. The follow-up purification was performed the same way as was for Mcl-1 wild-type recombinant

For experiment [2], the target named is T1, Mcl-1 protein. Nature of the experiment: TR-FRET binding assay with Bid-Dy647 peptide. To be noted: 10 nM Mcl-1, 10 nM Bid-Dy647. Here is the method:
TR-FRET was performed using black 384-well plates in an Envision Multilabel plate reader (Perkin Elmer Life Sciences). To each well, a mixture of 10 nM Bid-Dy647 peptide (79–99), 10 nM Mcl-1 protein, and Europium-anti-His antibody were added to a final volume of 25 μl in the assay buffer (20 mM potassium phosphate, pH 7.5; 50 mM NaCl, 1 mM EDTA and 0.05% Pluronic F68). The TR-FRET signals were measured with an Envision Multilabel plate reader after 2 h of incubation. (Ex 340 nm, Em615 nm and Em665 nm) and expressed as FRET signal ratio (F665 nm/[…] * 104)
(TR-FRET usually uses a lanthanide donor and a delayed reading to cut background.)

The next experiment addresses T2, Bfl-1 (Homo sapiens, UniProt Q16548).
T2 construct: Bf l-1 (residues 1-151); His tag (pHis-TEV vector) (N, cleaved yes); made in house; host or cells: E. coli BL21 (DE3)
T2 sequence (Q16548 1-151): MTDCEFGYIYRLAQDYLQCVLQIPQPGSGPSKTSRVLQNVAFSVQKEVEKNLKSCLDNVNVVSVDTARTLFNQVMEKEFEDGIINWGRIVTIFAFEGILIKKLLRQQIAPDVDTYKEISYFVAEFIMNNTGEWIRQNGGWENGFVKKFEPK
Description: FP-based competitive binding assay with FAM-Bid. To be noted: for IC50: Bfl-1. Here is the method:
as §1, §2, §3, §4
His-tagged proteins containing human Mcl-1 (residues 171–323), the isoform 2 construct of the human Bcl-2 [Bcl2-2 construct for protein production starts with the Bcl2 sequence of 1-34 a a, followed by the Bcl-xL seq uence of 35-50 aa, and ends with the Bcl-2 sequenc e of 92-202aa.], Bcl-xL (Human Bcl-xL protein, which has an internal deletion for the 45 -85 amino acid residues and a C -terminal truncation for the amino acid residues 212-233), and Bf l-1 (residues 1-151), were expres sed from the pHis -TEV vector (a modified pET vector) in E. coli BL21 (DE3) cells. Cells were grown at 37 °C in 2×YT containing antibiotics to an OD600 density of 1.5, 1 and 0.8 for Mcl-1, Bcl-xL and Bcl-2 respectively. Protein expression wa s induced by 0 .4 mM IPTG at 20 °C overnight for all proteins except for Bf l-1 which was e xpressed at 3 7 °C for four hours . Cells were lysed in 20 mM HEPES pH 7.5, 200 mM NaCl, 0.1% βME with Leupeptin/Aprotinin (Mcl-1), 25mM Tris pH 8.5, 200mM NaCl (Bcl-2), 50mM Tris pH 7.5, 200 mM NaCl (Bcl-xL) and 50 mM Tris pH 8, 500 mM NaCl, 0. 1% βME with Leupeptin/Aprotinin (Bf l-1). All

“And” between values parts separate entries of the source, which are not always exact repeats. Identical values can stand only once.

T1 sequence (Q07820 171-323): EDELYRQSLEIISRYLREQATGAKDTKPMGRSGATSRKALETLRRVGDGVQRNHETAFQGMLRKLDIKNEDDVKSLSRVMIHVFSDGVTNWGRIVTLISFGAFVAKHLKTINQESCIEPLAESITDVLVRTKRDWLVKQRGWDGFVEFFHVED

Regarding `c1ccc(CCCCSc2nnc(-c3ccco3)c(-c3ccco3)n2)cc1` [Compound 44], the Ki at Mcl-1 protein [1] is 0.3 ± 0.1 µM; on Bfl-1 (FP), 0.7 ± 0.1 µM. Also, the IC50 turned out to be 1.4 ± 0.2 µM at Mcl-1 protein [1], 2.5 ± 0.1 µM on Mcl-1 protein [2] and 5.1 ± 0.1 µM at Bfl-1.
As for `O=C(CSc1nnc(-c2ccco2)c(-c2ccco2)n1)Nc1ccccc1` [Compound 19], the Ki was 3.2 ± 0.3 µM at Mcl-1 protein [1] and 4.9 µM on Bfl-1 (FP). Further, the IC50 on Mcl-1 protein [1] was 13 µM and 13.8 µM; on Mcl-1 protein [2] it was 11.9 ± 3.7 µM; at Bfl-1, 35.6 ± 8.6 µM. Further, the “binding to Bfl-1 compared with Mcl-1” value at Bfl-1 (FP) is reported as “lower binding to Bfl-1 in comparison to Mcl-1”.
For `O=C(CSc1nnc(-c2ccco2)c(-c2ccco2)n1)Nc1cccc(C(F)(F)F)c1` [Compound 39], the Ki at Mcl-1 protein [1] was 1.2 ± 0.1 µM; on Bfl-1 (FP), 10.4 µM. The IC50 on Mcl-1 protein [1] is 5.1 ± 0.5 µM; on Mcl-1 protein [2], 7.1 ± 2.8 µM; at Bfl-1, 75.9 ± 6.2 µM. The “fold lower binding affinity to Bfl-1 than to Mcl-1” value at Bfl-1 (ratio of Ki) is 8 fold.
